The record followed here is patent US20250145665A1, “MACROCYCLIC PEPTIDES USEFUL AS MODULATORS OF TNF ALPHA” (Bristol-Myers Squibb Company, priority 2023, published 2025).

pIC50: −log10 of the molar value. Positions of bridges follow the written chain, without caps; N, C: chain ends. Non-standard residues stand in square brackets, D forms with d. Residues, ends and D or L forms follow the SMILES beside them. Bip(4'-COOH) = N[C@@H](Cc1ccc(-c2ccc(C(=O)O)cc2)cc1)C(=O)O; Bip(4'-NHAc) = CC(=O)Nc1ccc(-c2ccc(C[C@H](N)C(=O)O)cc2)cc1; Ala(morpholin-4-yl) = N[C@@H](CN1CCOCC1)C(=O)O; Phe(3-CONH2) = NC(=O)c1cccc(C[C@H](N)C(=O)O)c1; Bip = N[C@@H](Cc1ccc(-c2ccccc2)cc1)C(=O)O; Phe(2-Me) = Cc1ccccc1C[C@H](N)C(=O)O; 2Pal = N[C@@H](Cc1ccccn1)C(=O)O; Chg = N[C@H](C(=O)O)C1CCCCC1; Sar = CNCC(=O)O Bounds are passed on as bounds.

The target of this assay is TNFα (Homo sapiens, UniProt P01375). As to the kind of experiment: TNF-Induced HEK-Blue Assay. The class given is cell-based. To be noted: HEK-Blue-CD40L cells, NF-kB-driven secreted alkaline phosphatase reporter; TNFα 0.5 ng/ml; 18 h; read-out: TNF induced HEK-Blue assay IC50 value.
Chain of TNFα (P01375 77-233 limits assumed): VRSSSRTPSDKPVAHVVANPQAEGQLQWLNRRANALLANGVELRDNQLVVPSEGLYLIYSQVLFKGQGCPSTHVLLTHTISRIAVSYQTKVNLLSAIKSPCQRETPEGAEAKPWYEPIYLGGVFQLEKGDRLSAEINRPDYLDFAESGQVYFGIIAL
For orientation: pIC50 means the IC50 on a negative log10 scale, so that one unit is a factor of ten. Take `CC(=O)Nc1ccc(-c2ccc(C[C@@H]3NC(=O)[C@H](Cc4ccc(-c5ccccc5)cc4)NC(=O)[C@H](CN4CCOCC4)NC(=O)CSC[C@@H](C(=O)NCC(N)=O)NC(=O)[C@H](CC(C)C)NC(=O)[C@H](CCCNC(=N)N)NC(=O)[C@H](C(C)C)NC(=O)[C@@H]4CCCN4C(=O)[C@H](C(C)C)NC(=O)[C@@H](CCCNC(=N)N)NC(=O)[C@H](CC(=O)O)NC(=O)[C@H](Cc4ccc(O)cc4)NC(=O)CN(C)C3=O)cc2)cc1` [Example 195] ({CH2CO}-[Ala(morpholin-4-yl)][Bip][Bip(4'-NHAc)][Sar]YD[dR]VPVRLCG-NH2; thioether N-13): the negative logarithm of the IC50 (pIC50) is above 7.30. Take `CC(=O)Nc1ccc(-c2ccc(C[C@@H]3NC(=O)[C@H](Cc4ccc(-c5ccccc5)cc4)NC(=O)[C@H](CN4CCOCC4)NC(=O)CSC[C@@H](C(=O)NCC(N)=O)NC(=O)[C@H](CC(C)C)NC(=O)[C@H](Cc4ccc(O)cc4)NC(=O)[C@H](C(C)C)NC(=O)[C@@H]4CCCN4C(=O)[C@H](C(C)C)NC(=O)[C@H](CCCNC(=N)N)NC(=O)[C@H](CC(=O)O)NC(=O)[C@@H]4CCCN4C(=O)CN(C)C3=O)cc2)cc1` [Example 196] ({CH2CO}-[Ala(morpholin-4-yl)][Bip][Bip(4'-NHAc)][Sar]PDRVPVYLCG-NH2; thioether N-13): the negative-log IC50 (pIC50) is above 7.30. With `CC(=O)Nc1ccc(-c2ccc(C[C@@H]3NC(=O)[C@H](Cc4ccc(-c5ccccc5)cc4)NC(=O)[C@H](Cc4c[nH]c5ccccc45)NC(=O)CSC[C@@H](C(=O)NCC(N)=O)NC(=O)[C@H](CC(C)C)NC(=O)[C@H](Cc4ccc(O)cc4)NC(=O)[C@H](C(C)C)NC(=O)[C@@H]4CCCN4C(=O)[C@H](C(C)C)NC(=O)[C@@H](CCCNC(=N)N)NC(=O)[C@H](CC(=O)O)NC(=O)[C@H](Cc4ccccn4)NC(=O)CN(C)C3=O)cc2)cc1` [Example 197] ({CH2CO}-W[Bip][Bip(4'-NHAc)][Sar][2Pal]D[dR]VPVYLCG-NH2; thioether N-13) the figure was 6.70 to 7.30. The value for `CC(=O)Nc1ccc(-c2ccc(C[C@@H]3NC(=O)[C@H](Cc4ccc(-c5ccc(C(=O)O)cc5)cc4)NC(=O)[C@H](CN4CCOCC4)NC(=O)CSC[C@@H](C(=O)NCC(N)=O)NC(=O)[C@H](CC(C)C)NC(=O)[C@H](CCCNC(=N)N)NC(=O)[C@H](C)NC(=O)[C@@H]4CCCN4C(=O)[C@H](C(C)C)NC(=O)[C@@H](CCCNC(=N)N)NC(=O)[C@H](CC(=O)O)NC(=O)[C@@H]4CCCN4C(=O)CN(C)C3=O)cc2)cc1` [Example 198] ({CH2CO}-[Ala(morpholin-4-yl)][Bip(4'-COOH)][Bip(4'-NHAc)][Sar]PD[dR]VPARLCG-NH2; thioether N-13) was above 7.30; that for `CC(=O)Nc1ccc(-c2ccc(C[C@@H]3NC(=O)[C@H](Cc4ccc(-c5ccc(C(=O)O)cc5)cc4)NC(=O)[C@H](CN4CCOCC4)NC(=O)CSC[C@@H](C(=O)NCC(N)=O)NC(=O)[C@H](CC(C)C)NC(=O)[C@H](Cc4ccccc4C)NC(=O)[C@H](C(C)C)NC(=O)[C@@H]4CCCN4C(=O)[C@H](C(C)C)NC(=O)[C@@H](CCCNC(=N)N)NC(=O)[C@H](CC(=O)O)NC(=O)[C@H](Cc4ccccn4)NC(=O)CN(C)C3=O)cc2)cc1` [Example 199] ({CH2CO}-[Ala(morpholin-4-yl)][Bip(4'-COOH)][Bip(4'-NHAc)][Sar][2Pal]D[dR]VPV[Phe(2-Me)]LCG-NH2; thioether N-13) was above 7.30; that for `CC(=O)Nc1ccc(-c2ccc(C[C@@H]3NC(=O)[C@H](Cc4ccc(-c5ccc(C(=O)O)cc5)cc4)NC(=O)[C@H](CN4CCOCC4)NC(=O)CSC[C@@H](C(=O)NCC(N)=O)NC(=O)[C@H](CC(C)C)NC(=O)[C@H](Cc4cccc(C(N)=O)c4)NC(=O)[C@H](C(C)C)NC(=O)[C@@H]4CCCN4C(=O)[C@H](C(C)C)NC(=O)[C@@H](CCCNC(=N)N)NC(=O)[C@H](CC(=O)O)NC(=O)[C@H](Cc4ccccn4)NC(=O)CN(C)C3=O)cc2)cc1` [Example 200] ({CH2CO}-[Ala(morpholin-4-yl)][Bip(4'-COOH)][Bip(4'-NHAc)][Sar][2Pal]D[dR]VPV[Phe(3-CONH2)]LCG-NH2; thioether N-13) was 6.70 to 7.30. The value for `CC(=O)Nc1ccc(-c2ccc(C[C@@H]3NC(=O)[C@H](Cc4ccc(-c5ccccc5)cc4)NC(=O)[C@H](CN4CCOCC4)NC(=O)CSC[C@@H](C(=O)NCC(N)=O)NC(=O)[C@H](CC(C)C)NC(=O)[C@H](CCCNC(=N)N)NC(=O)[C@H](C4CCCCC4)NC(=O)[C@@H]4CCCN4C(=O)[C@H](C(C)C)NC(=O)[C@@H](CCCNC(=N)N)NC(=O)[C@H](CC(=O)O)NC(=O)[C@H](Cc4ccccn4)NC(=O)CN(C)C3=O)cc2)cc1` [Example 201] ({CH2CO}-[Ala(morpholin-4-yl)][Bip][Bip(4'-NHAc)][Sar][2Pal]D[dR]VP[Chg]RLCG-NH2; thioether N-13) was above 7.30. Consider `CC(C)C[C@@H]1NC(=O)[C@H](CCCNC(=N)N)NC(=O)[C@H](C(C)C)NC(=O)[C@@H]2CCCN2C(=O)[C@H](C(C)C)NC(=O)[C@@H](CCCNC(=N)N)NC(=O)[C@H](CC(=O)O)NC(=O)[C@@H]2CCCN2C(=O)CN(C)C(=O)[C@H](Cc2ccc(-c3ccccc3)cc2)NC(=O)[C@H](Cc2ccc(-c3ccccc3)cc2)NC(=O)[C@H](CN2CCOCC2)NC(=O)CSC[C@@H](C(=O)NCC(N)=O)NC1=O` [Example 202] ({CH2CO}-[Ala(morpholin-4-yl)][Bip][Bip][Sar]PD[dR]VPVRLCG-NH2; thioether N-13), for which the pIC50 is 5.70 to 6.70. The value for `CC(=O)Nc1ccc(-c2ccc(C[C@@H]3NC(=O)[C@H](Cc4ccc(-c5ccccc5)cc4)NC(=O)[C@H](CN4CCOCC4)NC(=O)CSC[C@@H](C(=O)NCC(N)=O)NC(=O)[C@H](CC(C)C)NC(=O)[C@H](CCCNC(=N)N)NC(=O)[C@H](C(C)C)NC(=O)[C@@H]4CCCN4C(=O)[C@H](C(C)C)NC(=O)[C@@H](CCCNC(=N)N)NC(=O)[C@H](CC(=O)O)NC(=O)[C@H](Cc4ccccn4)NC(=O)CN(C)C3=O)cc2)cc1` [Example 203] ({CH2CO}-[Ala(morpholin-4-yl)][Bip][Bip(4'-NHAc)][Sar][2Pal]D[dR]VPVRLCG-NH2; thioether N-13) was above 7.30. The value for `CC(C)C[C@@H]1NC(=O)[C@H](CCCNC(=N)N)NC(=O)[C@H](C2CCCCC2)NC(=O)[C@@H]2CCCN2C(=O)[C@H](C(C)C)NC(=O)[C@@H](CCCNC(=N)N)NC(=O)[C@H](CC(=O)O)NC(=O)[C@H](Cc2ccccn2)NC(=O)CN(C)C(=O)[C@H](Cc2ccc(-c3ccccc3)cc2)NC(=O)[C@H](Cc2ccc(-c3ccccc3)cc2)NC(=O)[C@H](CN2CCOCC2)NC(=O)CSC[C@@H](C(=O)NCC(N)=O)NC1=O` [Example 204] ({CH2CO}-[Ala(morpholin-4-yl)][Bip][Bip][Sar][2Pal]D[dR]VP[Chg]RLCG-NH2; thioether N-13) was 6.70 to 7.30; that for `CC(C)C[C@@H]1NC(=O)[C@H](CCCNC(=N)N)NC(=O)[C@H](C(C)C)NC(=O)[C@@H]2CCCN2C(=O)[C@H](C(C)C)NC(=O)[C@@H](CCCNC(=N)N)NC(=O)[C@H](CC(=O)O)NC(=O)[C@H](Cc2ccccn2)NC(=O)CN(C)C(=O)[C@H](Cc2ccc(-c3ccccc3)cc2)NC(=O)[C@H](Cc2ccc(-c3ccccc3)cc2)NC(=O)[C@H](CN2CCOCC2)NC(=O)CSC[C@@H](C(=O)NCC(N)=O)NC1=O` [Example 205] ({CH2CO}-[Ala(morpholin-4-yl)][Bip][Bip][Sar][2Pal]D[dR]VPVRLCG-NH2; thioether N-13) was 6.70 to 7.30; that for `CC(C)C[C@@H]1NC(=O)[C@H](CCCNC(=N)N)NC(=O)[C@H](C2CCCCC2)NC(=O)[C@@H]2CCCN2C(=O)[C@H](C(C)C)NC(=O)[C@@H](CCCNC(=N)N)NC(=O)[C@H](CC(=O)O)NC(=O)[C@@H]2CCCN2C(=O)CN(C)C(=O)[C@H](Cc2ccc(-c3ccccc3)cc2)NC(=O)[C@H](Cc2ccc(-c3ccccc3)cc2)NC(=O)[C@H](CN2CCOCC2)NC(=O)CSC[C@@H](C(=O)NCC(N)=O)NC1=O` [Example 206] ({CH2CO}-[Ala(morpholin-4-yl)][Bip][Bip][Sar]PD[dR]VP[Chg]RLCG-NH2; thioether N-13) was above 7.30. The value for `CC(C)C[C@@H]1NC(=O)[C@H](CCCNC(=N)N)NC(=O)[C@H](C2CCCCC2)NC(=O)[C@@H]2CCCN2C(=O)[C@H](C(C)C)NC(=O)[C@H](CCCNC(=N)N)NC(=O)[C@H](CC(=O)O)NC(=O)[C@@H]2CCCN2C(=O)CN(C)C(=O)[C@H](Cc2ccc(-c3ccccc3)cc2)NC(=O)[C@H](Cc2ccc(-c3ccccc3)cc2)NC(=O)[C@H](CN2CCOCC2)NC(=O)CSC[C@@H](C(=O)NCC(N)=O)NC1=O` [Example 207] ({CH2CO}-[Ala(morpholin-4-yl)][Bip][Bip][Sar]PDRVP[Chg]RLCG-NH2; thioether N-13) was 5.70 to 6.70; that for `CC(=O)Nc1ccc(-c2ccc(C[C@@H]3NC(=O)[C@H](Cc4ccc(-c5ccccc5)cc4)NC(=O)[C@H](CN4CCOCC4)NC(=O)CSC[C@@H](C(=O)NCC(N)=O)NC(=O)[C@H](CC(C)C)NC(=O)[C@H](Cc4ccc(O)cc4)NC(=O)[C@H](C(C)C)NC(=O)[C@@H]4CCCN4C(=O)[C@H](C(C)C)NC(=O)[C@H](CCCNC(=N)N)NC(=O)[C@H](CC(=O)O)NC(=O)[C@H](Cc4ccccn4)NC(=O)CN(C)C3=O)cc2)cc1` [Example 208] ({CH2CO}-[Ala(morpholin-4-yl)][Bip][Bip(4'-NHAc)][Sar][2Pal]DRVPVYLCG-NH2; thioether N-13) was 6.70 to 7.30; that for `CC(C)C[C@@H]1NC(=O)[C@H](Cc2ccc(O)cc2)NC(=O)[C@H](C2CCCCC2)NC(=O)[C@@H]2CCCN2C(=O)[C@H](C(C)C)NC(=O)[C@@H](CCCNC(=N)N)NC(=O)[C@H](CC(=O)O)NC(=O)[C@@H]2CCCN2C(=O)CN(C)C(=O)[C@H](Cc2ccc(-c3ccccc3)cc2)NC(=O)[C@H](Cc2ccc(-c3ccccc3)cc2)NC(=O)[C@H](CN2CCOCC2)NC(=O)CSC[C@@H](C(=O)NCC(N)=O)NC1=O` [Example 209] ({CH2CO}-[Ala(morpholin-4-yl)][Bip][Bip][Sar]PD[dR]VP[Chg]YLCG-NH2; thioether N-13) was 5.70 to 6.70.
